Test results as given in PubChem BioAssay AID248 (DTP/NCI, 2004).
Toxic doses and inconclusive results are not listed. Square brackets hold non-standard residues; d marks the D form. Peptide text beside a SMILES is read from it. * marks the point of attachment. ξ: configuration not given here. ξF = NC(Cc1ccccc1)C(=O)O; Cbz = O=C(OCc1ccccc1)*; CH2Cl = ClC*

Tested on: L1210 leukemia ip in BDF1 mice, survival T/C
Experiment: NCI In Vivo Anticancer Drug Screen. Data for tumor model L1210 Leukemia (intraperitoneal) in B6D2F1 (BDF1) mice
Settings: endpoint: mean survival time, higher = longer survival
Outline: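 Ratio derived from survival: compound-dosed mice over vehicle-dosed mice, all bearing a transplantable tumor.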

[1] = dose: 100.0 mg/kg/injection, schedule: Q01DX001 (ip), vehicle: saline
[2] = dose: 400.0 mg/kg/injection, schedule: Q01DX001 (ip), vehicle: saline
[3] = dose: 100.0 mg/kg/injection, schedule: Q01DX001 (ip), vehicle: saline with Tween-80
[4] = dose: 200.0 mg/kg/injection, schedule: Q01DX001 (ip), vehicle: saline with Tween-80
[5] = dose: 100.0 mg/kg/injection, schedule: Q01DX009 (ip), vehicle: saline with Tween-80
[6] = dose: 100.0 mg/kg/injection, schedule: Q04DX003 (ip), vehicle: saline with Tween-80
[7] = dose: 200.0 mg/kg/injection, schedule: Q01DX009 (ip), vehicle: saline with Tween-80
[8] = dose: 200.0 mg/kg/injection, schedule: Q04DX003 (ip), vehicle: saline with Tween-80
[9] = dose: 400.0 mg/kg/injection, schedule: Q04DX003 (ip), vehicle: saline with Tween-80
[10] = dose: 100.0 mg/kg/injection, schedule: Q04DX003 (ip), vehicle: Klucel (hydroxypropylcellulose) (HPC)
[11] = dose: 200.0 mg/kg/injection, schedule: Q04DX003 (ip), vehicle: Klucel (hydroxypropylcellulose) (HPC)
[12] = dose: 400.0 mg/kg/injection, schedule: Q04DX003 (ip), vehicle: Klucel (hydroxypropylcellulose) (HPC)

## CCCCSc1nc(=O)[nH]nc1SCc1ccccc1
[1]
  T/C: 98 % of control
dose: 200.0 mg/kg/injection, schedule: Q01DX001 (ip), vehicle: saline
  T/C: 93 % of control
[2]
  T/C: 95 % of control

## CCCCCCCCCCC(CCCCCCCCCC)CC1CCCCC1
dose: 100.0 mg/kg/injection, schedule: Q01DX001 (ip), vehicle: saline + alcohol
  T/C: 102 % of control
dose: 200.0 mg/kg/injection, schedule: Q01DX001 (ip), vehicle: saline + alcohol
  T/C: 94 % of control
dose: 400.0 mg/kg/injection, schedule: Q01DX001 (ip), vehicle: saline + alcohol
  T/C: 100 % of control

## O=c1cc(NCc2cccc(Cl)c2)[nH]c(=O)[nH]1
[3]
  T/C: 91 % of control
[4]
  T/C: 86 % of control
dose: 400.0 mg/kg/injection, schedule: Q01DX001 (ip), vehicle: saline with Tween-80
  T/C: 89 % of control

## Cc1ccc(C(=O)/C=C\c2ccccc2)cc1
[5]
  T/C: 110 % of control
[6]
  T/C: 103 % of control
[7]
  T/C: 97 % of control
[8]
  T/C: 98 % of control
dose: 400.0 mg/kg/injection, schedule: Q01DX009 (ip), vehicle: saline with Tween-80
  T/C: 97 % of control
[9]
  T/C: 92 % of control

## CC1=NN(c2ccccc2)C(=O)C1N=Nc1ccc(S(=O)(=O)Nc2ncccn2)cc1 (configuration not stated)
dose: 100.0 mg/kg/injection, schedule: Q01DX001 (ip), vehicle: carboxymethylcellulose (CMC)
  T/C: 100 % of control
dose: 200.0 mg/kg/injection, schedule: Q01DX001 (ip), vehicle: carboxymethylcellulose (CMC)
  T/C: 94 % of control
dose: 400.0 mg/kg/injection, schedule: Q01DX001 (ip), vehicle: carboxymethylcellulose (CMC)
  T/C: 89 % of control

## O=C(CNC(=O)OCc1ccccc1)NCC(=O)NC(Cc1ccccc1)C(=O)CCl (stereo not drawn) (Cbz-Gly-Gly-[ξF]-CH2Cl)
dose: 12.0 mg/kg/injection, schedule: Q01DX001 (ip), vehicle: Klucel (hydroxypropylcellulose) (HPC)
  T/C: 106 % of control
dose: 25.0 mg/kg/injection, schedule: Q01DX001 (ip), vehicle: Klucel (hydroxypropylcellulose) (HPC)
  T/C: 97 % of control
dose: 25.0 mg/kg/injection, schedule: Q04DX003 (ip), vehicle: Klucel (hydroxypropylcellulose) (HPC)
  T/C: 98 % of control
dose: 50.0 mg/kg/injection, schedule: Q01DX001 (ip), vehicle: Klucel (hydroxypropylcellulose) (HPC)
  T/C: 108 % of control
dose: 50.0 mg/kg/injection, schedule: Q04DX003 (ip), vehicle: Klucel (hydroxypropylcellulose) (HPC)
  T/C: 98 % of control
[10]
  T/C: 104 % of control

## CCCCCOC(=O)C1(C)OC1c1ccccc1 (configuration not stated)
dose: 100.0 mg/kg/injection, schedule: Q04DX002 (ip), vehicle: saline
  T/C: 108 % of control
dose: 200.0 mg/kg/injection, schedule: Q04DX002 (ip), vehicle: saline
  T/C: 93 % of control
dose: 400.0 mg/kg/injection, schedule: Q04DX002 (ip), vehicle: saline
  T/C: 93 % of control

## O=[N+]([O-])c1cccc(C=Nc2ccccc2)c1
[10]
  T/C: 112 % of control
[11]
  T/C: 96 % of control
[12]
  T/C: 96 % of control

## COC(=O)C1=C(C(=O)OC)C2CCC1O2
dose: 100.0 mg/kg/injection, schedule: Q01DX009 (ip), vehicle: saline
  T/C: 112 % of control
dose: 100.0 mg/kg/injection, schedule: Q04DX002 (ip), vehicle: saline with Tween-80
  T/C: 105 % of control
dose: 200.0 mg/kg/injection, schedule: Q01DX009 (ip), vehicle: saline
  T/C: 106 % of control
dose: 200.0 mg/kg/injection, schedule: Q04DX002 (ip), vehicle: saline with Tween-80
  T/C: 101 % of control
dose: 400.0 mg/kg/injection, schedule: Q01DX009 (ip), vehicle: saline
  T/C: 95 % of control
dose: 400.0 mg/kg/injection, schedule: Q04DX002 (ip), vehicle: saline with Tween-80
  T/C: 94 % of control

## CCN1CCC2CN(C)CCN2C1=S (configuration not stated)
dose: 25.0 mg/kg/injection, schedule: Q04DX003 (ip), vehicle: saline
  T/C: 98 % of control
dose: 50.0 mg/kg/injection, schedule: Q04DX003 (ip), vehicle: saline
  T/C: 105 % of control
[1]
  T/C: 92 % of control
dose: 100.0 mg/kg/injection, schedule: Q04DX003 (ip), vehicle: saline
  T/C: 94 % of control

## NC(=O)c1[nH]c(CCCc2ccccc2)nc1N
dose: 50.0 mg/kg/injection, schedule: Q01DX009 (ip), vehicle: saline with Tween-80
  T/C: 102 % of control
dose: 50.0 mg/kg/injection, schedule: Q04DX003 (ip), vehicle: saline with Tween-80
  T/C: 103 % of control
[3]
  T/C: 110 % of control
[5]
  T/C: 90 % of control
[6]
  T/C: 109 % of control
[4]
  T/C: 100 % of control
[7]
  T/C: 102 % of control
[8]
  T/C: 100 % of control

## ClCCN(CC#CCCCC#CCN(CCCl)CCCl)CCCl
[1]
  T/C: 168 % of control

## O=C(Cc1ccccc1)NC1=C(Cl)C(=O)c2ccccc2C1=O
[6]
  T/C: 89 % of control
[8]
  T/C: 101 % of control
[9]
  T/C: 88 % of control

## COc1cc(C)c(CN(C)C)c(OC)c1
dose: 27.0 mg/kg/injection, schedule: Q01DX Z (ip), vehicle: methylcellulose (MC)
  T/C: 102 % of control

## CCOc1ccccc1/C=N\NC(=O)CCCC(=O)N/N=C/c1ccccc1OCC
[2]
  T/C: 111 % of control

## CC(C)=CCN(CC=C(C)C)CCC(CC=C(C)C)(C(N)=O)c1cccc2ccccc12 (configuration not stated)
dose: 6.25 mg/kg/injection, schedule: Q01DX009 (ip), vehicle: Klucel (hydroxypropylcellulose) (HPC)
  T/C: 89 % of control
dose: 12.5 mg/kg/injection, schedule: Q01DX009 (ip), vehicle: Klucel (hydroxypropylcellulose) (HPC)
  T/C: 101 % of control
dose: 25.0 mg/kg/injection, schedule: Q01DX009 (ip), vehicle: Klucel (hydroxypropylcellulose) (HPC)
  T/C: 89 % of control

## CCCCCCC(=O)/C=C\c1ccccc1
dose: 100.0 mg/kg/injection, schedule: Q01DX001 (sc), vehicle: other
  T/C: 94 % of control
dose: 200.0 mg/kg/injection, schedule: Q01DX001 (sc), vehicle: other
  T/C: 91 % of control
dose: 400.0 mg/kg/injection, schedule: Q01DX001 (sc), vehicle: other
  T/C: 100 % of control

## CCCCNS(=O)(=O)c1ccc(OC)c(N)c1
dose: 100.0 mg/kg/injection, schedule: Q01DX009 (ip), vehicle: Klucel (hydroxypropylcellulose) (HPC)
  T/C: 98 % of control
dose: 200.0 mg/kg/injection, schedule: Q01DX009 (ip), vehicle: Klucel (hydroxypropylcellulose) (HPC)
  T/C: 104 % of control
dose: 400.0 mg/kg/injection, schedule: Q01DX009 (ip), vehicle: Klucel (hydroxypropylcellulose) (HPC)
  T/C: 97 % of control

## NC(=O)OCCOC(N)=O
[6]
  T/C: 97 % of control
[8]
  T/C: 95 % of control
[9]
  T/C: 95 % of control

## COc1cc2c(cc1NC1=NCCO1)OCO2
dose: 75.0 mg/kg/injection, schedule: Q04DX003 (ip), vehicle: Klucel (hydroxypropylcellulose) (HPC)
  T/C: 101 % of control
dose: 150.0 mg/kg/injection, schedule: Q04DX003 (ip), vehicle: Klucel (hydroxypropylcellulose) (HPC)
  T/C: 93 % of control
dose: 300.0 mg/kg/injection, schedule: Q04DX003 (ip), vehicle: Klucel (hydroxypropylcellulose) (HPC)
  T/C: 103 % of control

## COC1=CC2C3=C(C(NC=O)CCc4cc(OC)c(OC)c(OC)c43)C2C1=O (configuration not stated)
[10]
  T/C: 95 % of control
[11]
  T/C: 100 % of control
[12]
  T/C: 102 % of control
